Measurements reported in article PMC6093661, “Vitamin E hydroquinone is an endogenous regulator of ferroptosis via redox control of 15-lipoxygenase” (PLoS ONE, 2018).
Values joined by “and” are separate entries in the source; they are usually repeats but may differ in a detail not shown here. Identical values can stand only once. Like-named read-outs stand apart in the source and are kept apart here.

Experiments:
[1] = target: T1, Rabbit 15-lipoxygenase (rLOX15) (Oryctolagus cuniculus, UniProt P12530); test: Lipoxygenase enzyme inhibition assay; assay type: biochemical; conditions: for activity at 100 µM: read-out: 15-Lipoxygenase Enzyme Assay % activity at 100 μM; for IC50: 50 μM arachidonic acid substrate
T1 construct: purchased Enzo Life Sciences, Inc. BML-PL015
T1 sequence (P12530 1-663): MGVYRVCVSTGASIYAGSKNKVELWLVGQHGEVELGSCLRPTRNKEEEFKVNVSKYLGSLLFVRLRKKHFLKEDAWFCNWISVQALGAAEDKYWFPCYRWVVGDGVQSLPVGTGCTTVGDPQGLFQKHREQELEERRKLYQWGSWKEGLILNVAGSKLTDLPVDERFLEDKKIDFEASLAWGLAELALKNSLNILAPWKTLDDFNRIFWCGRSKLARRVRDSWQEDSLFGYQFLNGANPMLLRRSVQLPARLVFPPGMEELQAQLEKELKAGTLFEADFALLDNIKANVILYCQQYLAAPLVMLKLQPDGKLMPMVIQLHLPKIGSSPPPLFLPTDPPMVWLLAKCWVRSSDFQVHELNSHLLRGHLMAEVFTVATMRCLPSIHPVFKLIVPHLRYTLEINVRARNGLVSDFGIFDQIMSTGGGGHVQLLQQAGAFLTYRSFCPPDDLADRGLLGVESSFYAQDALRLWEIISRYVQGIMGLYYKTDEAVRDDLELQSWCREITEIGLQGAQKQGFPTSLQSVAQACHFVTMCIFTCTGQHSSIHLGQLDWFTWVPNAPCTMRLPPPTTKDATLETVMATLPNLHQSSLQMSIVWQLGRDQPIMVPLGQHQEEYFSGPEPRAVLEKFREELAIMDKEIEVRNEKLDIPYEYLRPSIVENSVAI
Procedure: Rabbit 15-lipoxygenase (rLOX15, part number BML-PL015, lot number 3-P9009a) was obtained from Enzo Life Sciences, Inc. Sodium cholate (part number C6445, lot number 094K0209) was obtained from Sigma-Aldrich.
Stock solutions of test compounds were prepared in DMSO and then diluted to final assay concentrations in cholate mix such that final cholate and DMSO concentrations were maintained at 0.2%.

[2] = system: Mouse striatal Q7 cells (STHdhQ7/Q7); test: RSL3 ferroptosis cell rescue (cellular survival assay, CellTiter-Glo)
Q7 cells [3] = test: RSL3-induced loss of Q7 cell viability; assay type: cell-based, mouse
Procedure: Ferroptotic cell death was induced in Q7 cells using RSL3, a GPX4 inhibitor previously described. All four stereoisomers of RSL3 were synthesized and purified using published methods. […] To assess compound rescue activity and potency from ferroptotic cell death, Q7 cells were seeded in clear bottom, black wall tissue culture-treated polystyrene plates (Corning) using either an electronic multichannel pipette or a Multidrop™ Combi Reagent Dispenser (ThermoFisher Scientific). Cells were incubated for 5 hours at 33°C in an atmosphere with 95% humidity and 5% CO2 to allow attachment of the cells to the culture plate. Test compounds were administered to the desired final concentrations using a D300e Digital Dispenser (Tecan), followed within 15 minutes by RSL3 (2 μM final concentration). DMSO diluent was back-filled to a final concentration of 0.3% (v/v). Cell plates were incubated at 33°C (5% CO2, 95% humidity) for 18 hours. After a 15-minute equilibration to room temperature, cell number/viability was assessed using the CellTiter-Glo® 2.0 Cell Titer Glo 2.0 reagent (a luminescence-based assay to quantitate ATP; Promega) which was added using the Multidrop™ Combi Reagent Dispenser (Thermo Fisher Scientific). After 15 minutes of incubation at room temperature, the luminescence (100 ms integration time) per well was determined using the BioTek Synergy plate reader. Data was imported into and analyzed using Dotmatics Studies software suite. EC50 values for each compound were estimated using standard four-parameter curve fitting algorithms. pEC50 is defined as negative-log10 (EC50) in M units.

Q7 cells [4] = test: Cellular lipid oxidation assay (BODIPY 581/591 C11, RSL3-treated Q7 cells); assay type: cell-based, mouse; conditions: RSL3 2 μM, 6-point titration, time-lapse microscopy
Procedure: Ferroptosis was induced by RSL3 (2 μM final concentration) in Q7 cells as described above. The protective activity of co-treated compounds was assessed also as described above. The rate of cellular lipid oxidation after GPX4 inhibition was assessed by monitoring the time-dependent changes in green fluorescence of cells pre-labeled with BODIPY™ 581/591 C11 dye (5 μM, 30-minute labeling period; Thermo Fisher/Invitrogen) using the IncuCyte S3 live-cell imaging apparatus (Sartorius) using a 10x objective. Cells (three images per field; at least three replicate wells per condition) were imaged once hourly for up to 18 hours after compound and RSL3 addition. Quantification of cell images was performed using the IncuCyte Zoom software using the Basic Analyzer tool which utilized an algorithm that calculated the total green-positive area per well where “green-positive” was defined as 1.45 times the local background-subtracted fluorescent signal. After a 2-3-hour lag period post-RSL3 treatment, the cellular green fluorescence signal began increasing. The rate of change in total green-positive area per well from 3–9 hours post-compound treatment was calculated, then expressed relative to that observed in the RSL3-only control treatment group, which was defined as 100%.

[5] = ORAC (oxygen radical absorbance capacity) assay; conditions: average of 25 and 12.5 μM compound; mean, SEM, n = 6
Procedure: ORAC assay kits were purchased from Cell Biolabs. Assays were performed per the manufacturer’s instructions for lipophilic samples with minor modifications. DMSO stock solutions of compounds were diluted in an anaerobic glovebox to final concentrations of 25 and 12.5 μM in triplicate. A standard curve of Trolox® between 0–100 μM in triplicate per concentration was also generated on each assay plate. Diluted compounds and standards were removed from the glovebox and reactions initiated by addition of aerobic fluorescein reagent and radical initiator. Fluorescein fluorescence was monitored at excitation wavelength of 480 nm and emission wavelength of 520 nm every minute for one hour. AUC analysis was performed as described in the kit protocol. The “Trolox equivalents” at each concentration of test compound were calculated and the average Trolox equivalents at the two compound concentrations are presented. The errors were determined by propagating errors from the SEMs of the triplicate determinations to the averages across the two triplicate determinations.

[6] = Radical-trapping antioxidant (RTA) activity assay in DOPC liposomes
[7] = system: 15-HETE release from Q7 cells; test: Targeted arachidonate metabolite release cellular assay (RSL3-treated Q7 cells); assay type: cell-based, mouse; conditions: RSL3 co-treatment, compound 10 μM
Procedure: Ferroptosis was initiated by RSL3 (2 μM final concentration) in Q7 cells as described above. The protective activity of co-treated compounds was assessed also as described above. Four to five hours after RSL3 treatment, the conditioned medium was collected into 1.2-mL cluster tubes containing ice-cold acetonitrile at a ratio of 1:2. Tubes were snap frozen on dry ice and stored at -80°C.
Prior to analysis, samples were thawed on wet ice and then vortexed briefly. Samples were centrifuged at 4000 rpm for 15min at 4°C. Supernatant (40 μL) was transferred to a 96-well injection plate and 10 μL of both internal standard and HPLC grade water were added. A Shimadzu Nexera MP system coupled to a Sciex 6500 Qtrap and configured for micro-flow was used to analyze all samples. Samples were maintained at 4°C in the Nexera MP autosampler for the duration of the analytical run.
A Thermo Gold-C8 column (1.9 μm, 1.0 x 100 mm) operated at 45°C was used for chromatographic separation. The total run time of the liquid chromatography method was 10 min. Mobile phase A consisted of water with 0.1% formic acid. Mobile phase B was composed of 0.1% formic acid in 3:1 acetonitrile:isopropyl alcohol. Gradient elution was employed, with mobile phase B being ramped from 5% at 0min, to 50% at 2 min, and finally 98% at 7.5 min. Electrospray conditions for the μLC-ESI-MS/MS method were optimized for a flow rate of 125 μL/min and were as follows: Ion spray voltage was set to -4500 V, temperature of 250°C, curtain gas of 20, CAD gas of 10, and ion source gas 1 and 2 of 20 and 40 psi, respectively. Analyzer parameters were optimized for each compound using a combination of manual tuning and compound optimization. The following MRM transitions were used to quantify concentrations of 15-HETE, 12-HETE and Arachidonic Acid (AA). 15-HETE: 319→219; 12-HETE: 319→179; AA: 303→259.

[8] = Mus musculus, 18 h, read-out: RSL3 Ferroptosis Cell Assay Average EC50, Q7 cells, RSL3 2 μM, 18 h co-treatment, CellTiter-Glo 2.0

Compound | IC50 ([1]; rabbit 15-LO) [nM] | activity at 100 µM ([1]; rabbit 15-LO, compound 100 μM) [%] | EC50 [2, 8] [nM] | other results
CC(C)=CCC/C(C)=C/CC/C(C)=C/CC[C@]1(C)CCc2cc(O)c(C)c(C)c2O1 [γT3, γ-tocotrienol] |  |  |  | activity at 100 µM [1]: 33%
CC(C)=CCC/C(C)=C/CC/C(C)=C/CC[C@@](C)(O)CCC1=CC(=O)C(C)=C(C)C1=O [γT3Q, γ-tocotrienol quinone] |  |  | 52 | 
CC1=CC(=O)C=C(CC[C@](C)(O)CCC[C@H](C)CCC[C@H](C)CCCC(C)C)C1=O [δTQ] |  |  | 236 | 
COC(=O)c1ccc([C@H]2c3[nH]c4ccccc4c3C[C@H](C(=O)OC)N2C(=O)CCl)cc1 [(1S,3R)-RSL3] |  |  |  | reduction of cell number/viability (Q7 cells [3]; RSL3 2 μM, 18 h, typical): > 80%; onset of cell death after RSL3 addition (Q7 cells [3]; RSL3 ≥1 μM): ~ 5 h; loss of cell viability (Q7 cells [3]; RSL3 ≥1 μM, 18 h after treatment): 80–95%; IC50 (Q7 cells [3]; most potent single stereoisomer of RSL3, read-out: IC50 for inhibition of Q7 cell viability): ~200 nM
CC1=C(C)C(=O)C(CC[C@](C)(O)CCC[C@H](C)CCC[C@H](C)CCCC(C)C)=CC1=O [γTQ, γ-tocopherol quinone] |  |  | 101 | 
CC(C)=CCC/C(C)=C/CC/C(C)=C/CC[C@@](C)(O)CCC1=C(C)C(=O)C(C)=C(C)C1=O [αT3Q, α-tocotrienol quinone] |  |  | 43 | 
Cc1c(C)c2c(c(C)c1O)CC[C@@](C)(CCC[C@H](C)CCC[C@H](C)CCCC(C)C)O2 [αT, α-tocopherol, reference compound] | > 100000 | 78 | 5160 | effect on RSL3-induced lipid oxidation (BODIPY 581/591 C11 oxidation) (Q7 cells [4]): prevented; inhibition of rabbit 15-LO enzyme activity ([1]; arachidonic acid as substrate, up to 100 μM): did not; ORAC Antioxidant Activity Assay Trolox Equiv. [5]: 0.073 Trolox Equiv. and 0.073 ± 0.008 Trolox Equiv.; Radical Trapping Assay AUC (Rel. Control) ([6]; 50 μM compound, 2 mol% in DOPC liposomes, BODIPY 581/591 C11 quenching, liposome-only control = 1): 5.123; RTA AUC fold greater than αTQ and αTHQ ([6]; DOPC liposomes, AUC relative to liposome only control): 2.5–4 fold; reduction of RSL3-induced 15-HETE production [7]: 19%; EC50 ([2]; read-out: RSL3 Ferroptosis Cell Assay Average EC50, Q7 cells, RSL3 2 μM, 18 h co-treatment, CellTiter-Glo 2.0): 5200 ± 2800 nM
CC(C)=CCC/C(C)=C/CC/C(C)=C/CC[C@@](C)(O)CCC1=CC(=O)C=C(C)C1=O [δT3Q, δ-tocotrienol quinone] |  |  | 163 | 

The next lines start with results.

IC50 ([1]; rabbit 15-LO) [nM] | activity at 100 µM ([1]; rabbit 15-LO, compound 100 μM) [%] | Compound | EC50 [2, 8] [nM] | other results
> 100000 | 64 | CC(C)=CCC/C(C)=C/CC/C(C)=C/CC[C@]1(C)CCc2c(C)c(O)c(C)c(C)c2O1 [αT3, α-tocotrienol] | 167 | fold more potent in inhibiting ferroptosis, tocotrienol vs corresponding tocopherol ([2]; Q7 cells, RSL3, EC50 ratio): ~ 30 fold
 | 46 | CC(C)=CCC/C(C)=C/CC/C(C)=C/CC[C@]1(C)CCc2cc(O)cc(C)c2O1 [δT3, δ-tocotrienol] | 517 | 
2090 | 17 | Cc1cc(O)cc(CC[C@](C)(O)CCC[C@H](C)CCC[C@H](C)CCCC(C)C)c1O [δTHQ, δ-tocopherol hydroquinone] | 84 | 
1120 | 7 | CC(C)=CCC/C(C)=C/CC/C(C)=C/CC[C@@](C)(O)CCc1cc(O)c(C)c(C)c1O [γT3HQ, γ-tocotrienol hydroquinone] | 36 | 
2190 | 18 | Cc1c(O)cc(CC[C@](C)(O)CCC[C@H](C)CCC[C@H](C)CCCC(C)C)c(O)c1C [γTHQ, γ-tocopherol hydroquinone] | 64 | 
 | 45 | Cc1cc(O)cc2c1O[C@](C)(CCC[C@H](C)CCC[C@H](C)CCCC(C)C)CC2 [δT, δ-tocopherol] | 5670 | 
1370 | 14 | CC(C)=CCC/C(C)=C/CC/C(C)=C/CC[C@@](C)(O)CCc1cc(O)cc(C)c1O [δT3HQ, δ-tocotrienol hydroquinone] | 146 | 
 | 24 | Cc1c(C)c2c(c(C)c1O)CC[C@@](C)(CCC(=O)O)O2 [α-CEHC] | 8510 | 
 | 34 | Cc1c(O)cc2c(c1C)O[C@](C)(CCC[C@H](C)CCC[C@H](C)CCCC(C)C)CC2 [γT, γ-tocopherol] | 3220 | 
1990 | 9 | CC(C)=CCC/C(C)=C/CC/C(C)=C/CC[C@@](C)(O)CCc1c(C)c(O)c(C)c(C)c1O [αT3HQ, α-tocotrienol hydroquinone] | 43 | 
